The values below come from patent US20110046220A1, “PARABEN COMPOUNDS” (CENTRE NATIONAL DE LA RECHERCHE SCIENTIFIQUE, priority 2007, published 2011).

Values after ≈ are worked out from the molar mass of the structure shown. Values joined by “and” are separate entries in the source; they are usually repeats but may differ in a detail not shown here. Identical values can stand only once. Like-named read-outs stand apart in the source and are kept apart here. A value given as a limit tells only on which side of the number the result lay.

Format in all cases: cell-based
The test system of test [1] is Staphylococcus aureus strain ATCC 6538. The test can be described thus: MIC determination by twofold dilution in microplates against Staphylococcus aureus. The note with it: for MIC: Staphylococcus aureus. As for the experimental part: Antimicrobial activity was tested by inhibition of growth of Gram positive bacteria Staphylococcus aureus strain ATCC 6538. All extracts and bacterial isolates from the sponge were screened for this antibacterial activity. Extracts and bacterial strains were also tested against gram negative gamma-proteobacteria (including Vibrios) and alpha-proteobacteria (Rhodobacterales), against Gram positive Bacillales (including Bacillus sp.) and against the yeast Candida albicans.
MICs of each of the compounds 1-9 according to the invention and of commercial methyl- and propyl parabens of the prior art were determined by a twofold dilution method from an initial 100 μg/mL concentration. […] Microplates were incubated for 24 hours at 30° C. with shaking (500 rpm) and optical density at 600 nm was read to estimate bacterial growth. The methyl- and propyl parabens of the prior art were obtained from the company Interchimie in Bobigny, France. […]
The results are reported in the following table 3 in which the MIC is reported in μg/ml and expressed, as in table 1, as the interval a-b, where a is the highest concentration tested at which microorganism are growing and b the lowest concentration that causes 100% growth inhibition.

For test [2], the system named is Staphylococcus aureus (ATCC 6538). The test can be described thus: MBC determination by subculturing wells with no visible growth onto agar plates. The following applies: for MBC/MIC ratio / bactericidal or bacteriostatic effect (from MBC/MIC ratio): S. aureus; for MBC: Staphylococcus aureus, ATCC6538. The procedure:
MBCs were determined to estimate bacterial survival in wells with no visible growth after 24 h by subculturing onto agar plates to count the number of colony-forming-units (CFU/mL).
In order to determine whether the growth inhibition observed against S. aureus was relevant either of a bactericidal or a bacteriostatic effect, the ratio MBC/MIC was calculated.

Test [3] has as its system Microbulbifer sp. strain L4-N2. The test is described as follows: Antibiotic resistance/sensitivity of bacteria of the strain L4-N2. The following applies: kanamycine 30UI; ceftazidime 30 μg. As for the experimental part:
Bacteria of the strain L4-N2 are gram negative, aerobic, rod-shaped, and approximately 1 μm wide by 5 to 7 μm long. They form smooth, convex and mucoid colonies, and produce a non-diffusible brown pigment. They use glucose and display beta-galactosidase, catalase, and gelatinase activities. They are resistant to ampicillin, penicillin and oxacillin and sensitive to kanamycine (30UI) and ceftazidime (30 μg).

Where [4] appears, read: ATCC6538, S. aureus ATCC 6538, 24 hours at 30° C., interval a-b (a highest concentration with growth, b lowest with 100% growth inhibition), triplicate, read-out: MIC.
Setting [5] is: ATCC6538, S. aureus ATCC 6538, 24 hours at 30° C., interval a-b, triplicate, read-out: MIC.
Where [6] appears, read: S. aureus ATCC 6538, lowest concentration yielding colony counts <0.1% of the initial inoculum, read-out: MBC.

With `CCOC(=O)c1ccc(O)cc1` [Compound 1, 4-Hydroxy-benzoic acid ethyl ester], the MIC in test [1] (setting [4]) is over 602 µM; in test [1] (setting [5]) it was over 100 µg/mL. Moreover, the MBC/MIC ratio in test [2] is on record as over 16. The MBC in test [2] (setting [6]) is over 100 µg/mL.
Regarding `CCCCOC(=O)c1ccc(O)cc1` [Compound 2, 4-Hydroxy-benzoic acid butyl ester], the MIC in test [1] (ATCC6538, 24 h) is 129 µM to 258 µM and 25 µg/mL to 50 µg/mL. For the same molecule, in test [2], the MBC/MIC ratio is on record as over 16 and the MBC is over 100 µg/mL.
As for `CCCCCCCCOC(=O)c1ccc(O)cc1` [Compound 3, 4-Hydroxy-benzoic acid octyl ester], the MIC in test [1] (setting [4]) is 100 to 200 µM. The MIC in test [1] (setting [5]) is 25 to 50 µg/mL. In addition, in test [2], the MBC/MIC ratio is reported as 2 and the “bactericidal or bacteriostatic effect (from MBC/MIC ratio)” value is “bactericidal (If MBC/MIC is less than 4, the compound is bactericidal)”. In test [2] (setting [6]), the MBC fell in the range of 50 to 100 µg/mL (≈ 200 to 399 µM).
As for `CCCCCCCCCCOC(=O)c1ccc(O)cc1` [Compound 4, 4-Hydroxy-benzoic acid decyl ester], the MIC in test [1] (setting [4]) fell in the range of 2.8 to 5.6 µM. In addition, in test [1] (setting [5]), the MIC is 0.78 to 1.56 µg/mL. For the same molecule, in test [2], the MBC/MIC ratio stood at 16; the “bactericidal or bacteriostatic effect (from MBC/MIC ratio)” value is “bacteriostatic (if MBC/MIC is between 8 and 16 and above 16, the compound is bacteriostatic)”. Also, in test [2] (setting [6]), the MBC was in the range of 12.5 to 25 µg/mL (≈ 44.9 to 89.8 µM).
On to `CCCCCCCC(O)CCOC(=O)c1ccc(O)cc1` (stereo not shown) [Compound 5, 4-Hydroxy-benzoic acid 3-hydroxy-decyl ester], for which the MIC in test [1] (setting [4]) was in the range of 85 to 170 µM; in test [1] (setting [5]), 25 to 50 µg/mL. In addition, the MBC/MIC ratio in test [2] was over 16. Further, in test [2] (setting [6]), the MBC is over 100 µg/mL.
With `CC(C)CCCCCCCCOC(=O)c1ccc(O)cc1` [Compound 6], the MIC in test [1] (setting [4]) lay in the range of 42.8 to 85.6 µM. In test [1] (setting [5]), the MIC fell in the range of 12.5 to 25 µg/mL. In test [2], the MBC/MIC ratio was 2 and the “bactericidal or bacteriostatic effect (from MBC/MIC ratio)” value is listed as “bactericidal (If MBC/MIC is less than 4, the compound is bactericidal)”. Moreover, the MBC in test [2] (setting [6]) lay in the range of 25 to 50 µg/mL (≈ 85.5 to 171 µM).
Consider `CC(C)CCCCCC(O)CCOC(=O)c1ccc(O)cc1` (stereo not shown) [Compound 7], for which the MIC in test [1] (setting [4]) lay within 40.5 to 81.1 µM. Besides, the MIC in test [1] (setting [5]) lay within 12.5 to 25 µg/mL. Also, in test [2], the MBC/MIC ratio was found to be 2 and the “bactericidal or bacteriostatic effect (from MBC/MIC ratio)” value was “bactericidal (If MBC/MIC is less than 4, the compound is bactericidal)”. In addition, the minimum bactericidal concentration (MBC) in test [2] (setting [6]) is 25 to 50 µg/mL (≈ 81.1 to 162 µM).
Turning to `CCCCCCCCCCCCOC(=O)c1ccc(O)cc1` [Compound 8, 4-Hydroxy-benzoic acid dodecyl ester], the MIC lay within 81.6 to 163 µM in test [1] (setting [4]) and 25 to 50 µg/mL in test [1] (setting [5]). The MBC/MIC ratio in test [2] is on record as over 16. Besides, in test [2] (setting [6]), the MBC is over 100 µg/mL.
With `CCCCCC/C=C/CCCCOC(=O)c1ccc(O)cc1` [Compound 9, 4-Hydroxy-benzoic acid dodec-5-enyl ester], the “factor of enhancement of antimicrobial activity by unsaturation of the alkyl chain (compound 9 vs compound 8)” value in test [1] (S. aureus, compared MIC values) worked out at 4. Besides, the values for the minimal inhibitory concentration (MIC) in test [1] (setting [4]) and in test [1] (setting [5]) were 20.5 to 41.1 µM and 6.25 to 12.5 µg/mL, respectively. In addition, in test [2], the MBC/MIC ratio came out at 8. Also, the “bactericidal or bacteriostatic effect (from MBC/MIC ratio)” value in test [2] is “bacteriostatic (if MBC/MIC is between 8 and 16 and above 16, the compound is bacteriostatic)”. Also, the MBC in test [2] (setting [6]) lay within 50 to 100 µg/mL (≈ 164 to 328 µM).
Regarding `COC(=O)c1ccc(O)cc1` [Methyl paraben, reference compound], the values for the MIC in test [1] (setting [4]) and in test [1] (setting [5]) were 329 to 658 µM and 50 to 100 µg/mL, respectively. For the same molecule, the MBC in test [2] (setting [6]) was over 100 µg/mL.
The matching figures for `CCCOC(=O)c1ccc(O)cc1` [Propyl paraben, reference compound]: 278 to 556 µM, 50 to 100 µg/mL and over 100 µg/mL.
For the molecule `CC1(C)S[C@@H]2[C@H](NC(=O)[C@H](N)c3ccccc3)C(=O)N2[C@H]1C(=O)O` [ampicillin], the “resistance or sensitivity of strain L4-N2 bacteria to the antibiotic” value (shortened to “resistance or sensitivity”) in test [3] is “resistant”.
For `CC(C)(O/N=C(\C(=O)N[C@@H]1C(=O)N2C(C(=O)[O-])=C(C[n+]3ccccc3)CS[C@H]12)c1csc(N)n1)C(=O)O` [ceftazidime], the “resistance or sensitivity” value in test [3] is “sensitive”.
The same measure, in the same setting: the result for `NC[C@H]1O[C@H](O[C@H]2[C@H](O)[C@@H](O[C@H]3O[C@H](CO)[C@@H](O)[C@H](N)[C@H]3O)[C@H](N)C[C@@H]2N)[C@H](O)[C@@H](O)[C@@H]1O` [kanamycine] reads “sensitive”.
With `Cc1onc(-c2ccccc2)c1C(=O)N[C@@H]1C(=O)N2[C@@H]1SC(C)(C)[C@@H]2C(=O)O` [oxacillin], the “resistance or sensitivity” value in test [3] was “resistant”.
penicillin: the “resistance or sensitivity” value in test [3] is on record as “resistant”.

By MIC is commonly meant the smallest concentration in the dilution series that meets the test's criterion for growth inhibition. One may read the MBC as the lowest tested concentration that kills the bacteria rather than only halting them.
